Data reported in US20020052331A1, “Compositions and methods for antisense inhibition of protein translation” (priority 1990, published 2002).
Where two headings read alike, the source gives them in different places. Strand notation (5' to 3'): a small letter for the sugar, then the base; units joined by * are phosphorothioate-linked, units joined directly phosphodiester-linked; [ ] holds rarer units or linkages, { } end groups; capitals alone tell only the bases. [MMI] = methylene(methylimino) internucleoside backbone linkage; e = 2'-O-(2-methoxyethyl) (MOE); [5mC] = 5-methylcytosine; d = 2'-deoxy (DNA)

Experiments:
Type in all cases: cell-based, human
ICAM-1 mRNA [1] = experiment: Northern blot analysis of ICAM-1 transcript abundance in oligomer-treated HUVECs; details: FIG. 2
Source text: Total cellular RNA was isolated from oligomer-treated HUVECs and analyzed to determine if inhibition of ICAM-1 protein expression resulted from antisense-promoted degradation of the target transcript.
(§1) Total cellular RNA was isolated by cellular lysis using CATRIMOX-14 surfactant (Iowa Biotechnology Group, Oakdale Iowa). Isolated RNA was separated on a 1.2% agarose gel containing 1.1% formaldehyde, then transferred to a nylon membrane and UV crosslinked to the membrane using a Stratagene UV crosslinker 2400 (La Jolla Calif.). Blots were hybridized with cDNA probes in QUICKHYB solution (Stratagene). Blots were washed twice at room temperature in 2×SSC with 0.1% SDS for 10 minutes each and then once in […] SSC with 0.1% SDS at 65° C. for 30 minutes.

E-selectin mRNA [2] = experiment: Northern blot analysis of E-selectin mRNA levels in oligomer-treated HUVECs
Source text: ISIS 11929 is an antisense oligonucleotide targeted to E-selectin, another cellular adhesion molecule, and was included in this experiment as a control.
as §1

E-selectin mRNA [3] = experiment: ELISA of E-selectin expression in HUVECs; details: HUVECs; for IC50: ELISA, read-out: IC50 for reduction of E-selectin expression
ICAM-1 mRNA [4] = experiment: Cell surface ICAM-1 expression in U937 cells after electroporation of MMI oligomers; details: six concentrations 4 to 40 μM, N.A. = IC50 not obtained in the given dose range, read-out: Antisense activity (IC50) Electroporate
Protocol: ISIS 14293-14296 are corresponding oligomers with alternating MMI/P═S backbones.
U937 cells were washed once in cold Opti-MEM (Gibco-BRL, Grand Island, N.Y.) and resuspended at 4×10^6 cells/ml. Oligomer was added to 0.1 ml of cells and incubated for 10 minutes on ice. Cells were transferred to a 1 mm gap electrode (BTX, San Diego, Calif.) and electroporated at 0.75 kV/cm. Cells were incubated at room temperature for 10 minutes and transferred to pre-warmed medium. Cells were allowed to rest for 1.5 hours before ICAM-1 expression was induced with 5 ng/ml TNF-αovernight. Cells were stained with an anti-ICAM-1-PE antibody (Pharmingen, San Diego CA) the next day.

ICAM-1 mRNA [5] = experiment: Cell surface ICAM-1 expression in HUVECs after Lipofectin delivery of MMI oligomers; details: six concentrations 6.2 to 200 nM, N.A. = IC50 not obtained in the given dose range, read-out: Antisense activity (IC50) Lipofectin

Substance	relative abundance of the ICAM-1 transcript (Northern blot) (ICAM-1 mRNA [1])	E-selectin mRNA levels (E-selectin mRNA [2])	IC50 (E-selectin mRNA [3]; FIG. 5 experiment) [nM]	IC50 (E-selectin mRNA [3]; equivalent (second) experiment) [nM]	IC50 for inhibition of E-selectin expression (E-selectin mRNA [3]; FIG. 3 experiment)	inhibition of E-selectin expression (E-selectin mRNA [3]; oligomer concentration of 50 nM) [%]	IC50 (ICAM-1 mRNA [4]) [nM]	IC50 (ICAM-1 mRNA [5]) [nM]
ISIS 11929: SEQ ID NO: 3, P═O all 2′-MOE except 3′ nt is deoxy, all C's 5meC; E-selectin 5′ cap (antisense eGeAeAeGeTe[5mC]eAeGe[5mC]e[5mC]eAeAeGeAeAe[5mC]eAeGe[5mC]dT)	did not cause an increase	did cause an increase	< 3	< 3	well below this	~100		
ISIS 14294: T*GA*GT*AG*CA*GA*GG*AG*CT*C (SEQ ID NO: 12), alternating P═S/MMI; ICAM-1 n.t. 1-18 (TGAGTAGCAGAGGAGCTC; linkages [MMI]s[MMI]s[MMI]s[MMI]s[MMI]s[MMI]s[MMI]s[MMI]s[MMI] (s phosphorothioate, o phosphodiester), sugars by position and methylation of C not given here; 3'-terminal nucleotide 2'-deoxy, non-terminal cytosines 5-methylated)							20000	175
